According to patent US8858967B2, “Dermatological cream-gels containing avermectin compounds” (Galderma S.A., priority 2004, dated 2014):

Assay: Maximum solubility of ivermectin in solvents
Format: physicochemical
Description: By way of example of a solvent and/or a propenetrating agent for the ivermectin active agent, representative are propylene glycol, alcohols such as ethanol, isopropanol, butanol, benzyl alcohol, N-methyl-2-pyrrolidone or DMSO, polysorbate 80; phenoxyethanol, and mixtures thereof.

Ivermectin
Maximum % solubility of ivermectin in the solvent under consideration (weight/weight) (solvent N-methyl-2-pyrrolidone): 58.13 % (weight/weight)
Maximum % solubility of ivermectin in the solvent under consideration (weight/weight) (solvent propylene glycol/oleic acid (4 parts/2 parts)): 27.31 % (weight/weight)
Maximum % solubility of ivermectin in the solvent under consideration (weight/weight) (solvent propylene glycol/polysorbate 80/phenoxyethanol (4 parts/1 part/1 part)): 28.63 % (weight/weight)
